Tests used:
[1] = tested on: BE(2)-M17 cells; assay: In vitro protection assays (MTS cell viability, LDH release) against neurotoxins; type: cell-based, human; details: lentiviral overexpression in BE(2)-M17 cells, toxin 20 hrs
Method: Viability of the M17 cells was assessed following exposure to a variety of neurotoxins, each representing different aspects of PD pathology. 6-hydroxydopamine (6-OHDA) causes oxidative stress. MG-132 induces proteasome inhibition. And, MPP+ causes mitochondrial dysfunction by inhibiting Complex I. Cytotoxicity of M17 cells was determined using both cell viability assays and LDH release. G-substrate overexpression in M17 cells was confirmed by Western blot analysis (FIG. 3A) and by immunocytochemistry (FIG. 3B).
BE(2)-M17 cells were transduced with lentivirus expressing control or G-substrate with a multiplicity of infection 15. Cells were grown in Optimem™ (Invitrogen, Carlsbad, Calif.) supplemented with 10% heat-inactivated fetal calf serum (Hyclone, Logan, Utah), nonessential amino acid and sodium pyruvate. Cells were maintained at 37° C., in 5% CO2 humid atmosphere. For the bioassay, cells were plated in 96 well plates at 5000 per well. The next day, cells were treated with various concentrations of 6-OHDA (Sigma), MG-132 (Calbiochem) and MPP+ (Sigma) for 20 hrs. The supernatant was used to determine cytotoxicity using LDH release assay kit (Roche, Indianapolis, Ind.) and the cells remaining on the plate was used to determine cell viability using MTS based solution, CellTiter 96 AQueous One™ solution cell proliferation assay (Promega, Madison, Wis.).
Three different siRNAs for human G-substrate as described herein, a negative control siRNA, and a validated Akt siRNA (Ambion; Austin, Tex.) were used. Cells were plated in 96 well plates at 5000 per well with siRNAs and siPORT NeoFX transfection agent (Ambion, Austin, Tex.). After 48 hrs of incubation with siRNAs, each of the toxicants (6-OHDA, MG-132 or MPP+) were applied to the cells. Cell viability and cytotoxicity was measured after 20 hrs of toxin exposure.

[2] = tested on: VMAT2; assay: Western blot of VMAT2 expression in M17 cells; type: cell-based, human
Description: BE(2)-M17 cells were used to investigate the interaction between G-substrate and α-synuclein, a known risk factor and possible causative agent in Parkinson's disease. […] Likewise, VMAT2 expression was reduced in naïve M17 cells following the reduction in endogenous G-substrate using siRNA (FIG. 10C).
M17 cells transiently and stably overexpression α-synuclein were transfected using the G-substrate lentiviral vector described above.
The PP2A regulation of VMAT 2 was investigated in M17 cells. PP2A levels were reduced using RNAi. […] The effect of PP2A inhibition was not generalized to other dopaminergic markers tested.
Cells and tissue samples were collected from and suspended in lysis buffer containing: 50 mM Tris-HCl, 0.15 M NaCl, 0.32 M sucrose, 1.0 mM EDTA, and 1% NP-40. In addition, phosphatase inhibitors I and II (1:100) and protease inhibitors (1:100) were added fresh prior to cell lysis (Sigma-Aldrich, P2850, P5276, and P8340 respectively). Following cell lysis, the homogenate was centrifuged, a portion of the supernatant was reserved for protein determination (BCA Assay, Pierce, Rockford, Ill.) and the remaining was stored at −20° C. 20 μg (in vitro cell preps) and 50 μg (tissue dissections) of solubilized protein were mixed 1:1 with sample buffer and boiled for 5 min. The samples and molecular weight standards were separated using the Criterion precast 10% SDS-polyacrylamide gel system (Bio-Rad, Hercules, Calif.). After electrophoresis, the proteins were electrically transferred to PVDF membranes at 100 V for 30 min. After transfer, blots were incubated in Tris-buffered saline with 0.1% Tween 20 (TBS-T) containing 5% BSA. Subsequently, blots were incubated with the following antibodies at 4° C. overnight (1:1000 unless otherwise stated): phospho-Akt (ser473), phospho-GSK3β (ser9), phospho-erk1/2, and phospho-p38 (Cell Signaling Technologies, Danvers, Mass.). HRP-conjugated secondary antibodies were then applied and immunoreactive bands were visualized with chemiluminescence (Amersham Biosciences, Arlington Heights, Ill.) and exposed onto film. Immunoblots were then stripped and re-probed for the expression of the total protein (Cell Signaling) and beta-actin (1:10 000) (Abcam) to serve as a loading control. Optical density analysis (NIH image) was used to determine the relative abundance of protein in each sample. The optical densities of the phospho epitopes were standardized to their respective total proteins and this value was used in the statistical analyses.

[3] = tested on: Akt, GSK3β; assay: In vivo Akt and GSK3β phosphorylation, Western blot of substantia nigra and striata; set-up: species or system rat; details: rats
Method: The in vivo effect of G-substrate overexpression on Akt and GSK3β phosphorylation was investigated. Substantia nigra (FIG. 12R) and striata (FIG. 12T) of the control (empty vector) lentivirus and G-substrate injected were dissected and a Western blot analysis was performed.
Animals were deeply anesthetized with an i.p. injection sodium pentobarbital and were sacrificed by exsanguination with the aid of ice-cold saline perfusion. For immunohistochemistry, the brains were then fixed with a 4% paraformaldehyde solution. The brains were then removed from the skull and placed in fresh 4% paraformaldehyde solution for 1 h, and equilibrated through 20% and 30% sucrose solutions and refrigerated until cutting for immunohistochemistry. For immunoblotting, brains injected with lenti-empty vector+lenti-eGFP (n=10) or lenti-G substrate+lenti-eGFP (n=10) were rapidly removed after saline perfusion and sliced coronally using a tissue chopper set to 1 mm (Campden Instruments Ltd., Lafayette, Ind.). On an inverted glass Petri dish over ice, regions of interest (striatum and substantia nigra region) were dissected from the individual 1 mm tissue slices, frozen on dry ice, and stored at −80° C.
Cells and tissue samples were collected from and suspended in lysis buffer containing: 50 mM Tris-HCl, 0.15 M NaCl, 0.32 M sucrose, 1.0 mM EDTA, and 1% NP-40. In addition, phosphatase inhibitors I and II (1:100) and protease inhibitors (1:100) were added fresh prior to cell lysis (Sigma-Aldrich, P2850, P5276, and P8340 respectively). Following cell lysis, the homogenate was centrifuged, a portion of the supernatant was reserved for protein determination (BCA Assay, Pierce, Rockford, Ill.) and the remaining was stored at −20° C. 20 μg (in vitro cell preps) and 50 μg (tissue dissections) of solubilized protein were mixed 1:1 with sample buffer and boiled for 5 min. The samples and molecular weight standards were separated using the Criterion precast 10% SDS-polyacrylamide gel system (Bio-Rad, Hercules, Calif.). […]

[4] = G-substrate versus control lentivirus

**Q.** For “G-substrate: human wild type G-substrate (SEQ ID NO.: 1) overexpressed from a lentiviral vector”, which “protection against MPP+-induced toxicity (cell viability, LDH release)” value [1] is on record?
**A.** neither wild-type nor T123A mutant G-substrate overexpression was protective

**Q.** What about the “neuroprotection against 6-OHDA toxicity (cell viability, LDH release)” value ([1]; compared to control) of the same substance?
**A.** neuroprotective

**Q.** And the “neuroprotection against MG-132 toxicity (cell viability, LDH release)” value ([1]; compared to control)?
**A.** neuroprotective

**Q.** And the “VMAT2 expression in α-synuclein overexpressing cells” value ([2]; M17 cells transiently and stably overexpressing α-synuclein)?
**A.** reversing the α-synuclein-induced loss of VMAT2

**Q.** And the VMAT2 expression ([2]; naïve M17 cells)?
**A.** significant increase

**Q.** And the pAkt levels ([3]; substantia nigra and striata, compared to control lentivirus)?
**A.** 1.38 fold

**Q.** What about the “level of pGSK3β in the SN” value [3, 4] of the same substance?
**A.** unchanged

**Q.** What about the “level of pGSK3β in the striatum” value [3, 4] of the same substance?
**A.** modestly but significantly higher

Reference: patent US8545834B2, “G-substrate for the treatment and prevention of parkinson's disease” (The McLean Hospital Corporation, priority 2007, dated 2013)
